Source: patent US20120142685A1, “ORGANIC COMPOUNDS” (priority 2007, published 2012)
pIC50: −log10 of the molar value.

What follows are compounds tested against T1, protein kinase D3 (PKD3) (Homo sapiens, UniProt O94806) (assay: PKD3 TR-FRET (LANCE) kinase assay). Details: not given.
T1 construct: This assay is performed with full length wild-type enzyme that is purchased from Invitrogen; purchased Invitrogen
T1 sequence (O94806 1-890): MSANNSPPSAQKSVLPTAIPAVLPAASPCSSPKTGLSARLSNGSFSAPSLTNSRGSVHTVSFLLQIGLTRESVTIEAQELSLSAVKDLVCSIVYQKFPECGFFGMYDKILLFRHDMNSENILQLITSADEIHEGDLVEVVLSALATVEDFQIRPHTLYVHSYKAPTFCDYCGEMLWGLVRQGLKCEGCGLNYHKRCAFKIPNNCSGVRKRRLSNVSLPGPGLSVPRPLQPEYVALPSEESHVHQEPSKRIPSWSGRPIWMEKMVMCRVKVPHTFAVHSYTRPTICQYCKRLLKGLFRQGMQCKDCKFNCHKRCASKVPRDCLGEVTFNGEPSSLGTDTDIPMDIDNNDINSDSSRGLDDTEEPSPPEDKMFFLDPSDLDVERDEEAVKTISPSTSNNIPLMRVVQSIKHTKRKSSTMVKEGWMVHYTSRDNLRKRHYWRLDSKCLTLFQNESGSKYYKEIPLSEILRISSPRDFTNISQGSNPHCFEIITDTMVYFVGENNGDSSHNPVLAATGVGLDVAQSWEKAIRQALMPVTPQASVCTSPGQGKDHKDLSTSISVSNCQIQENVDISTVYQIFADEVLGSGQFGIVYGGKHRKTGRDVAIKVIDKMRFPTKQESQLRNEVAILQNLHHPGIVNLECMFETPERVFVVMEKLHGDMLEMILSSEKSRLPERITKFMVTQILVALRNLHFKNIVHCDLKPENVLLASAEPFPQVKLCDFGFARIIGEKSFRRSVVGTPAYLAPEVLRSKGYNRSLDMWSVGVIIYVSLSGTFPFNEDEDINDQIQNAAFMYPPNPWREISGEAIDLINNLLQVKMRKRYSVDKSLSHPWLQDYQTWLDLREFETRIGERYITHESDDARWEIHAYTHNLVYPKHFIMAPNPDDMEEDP
Assay type: biochemical
Source text: The assay to measure protein kinase D3 (PKD3) activity is a time-resolved fluorescence resonance transfer (TR-FRET) assay using PerkinElmer's LANCE™ technology. In this case, a biotinylated syntide-2 peptide is used as the substrate in this reaction. Phosphorylation of the syntide-2 substrate is detected by a specific antibody that recognizes the phosphorylated peptide. A second fluorophore, APC, is conjugated to streptavidin that binds the biotinylated syntide-2 peptide. […] Therefore, when the europium labeled secondary antibody binds on the phosphorylated peptide, it is brought into close contact with the APC and excites this fluorophore.
This assay is performed with full length wild-type enzyme that is purchased from Invitrogen. The reaction buffer consists of 35 mM Tris-HCl pH7.5, 5 mM MgCl2, 0.02% Tween-20, 20 μM ATP, 1 mM DTT and 0.2 μg/mL PKD3 enzyme. The enzyme reaction is initiated by the addition of 2 μM syntide-2 peptide substrate and the reaction carried out for 50 minutes at room temperature. The reaction is stopped by a stop/detection buffer consisting of 50 mM EDTA, 0.18 mg/mL rabbit polyclonal anti-phospho syntide-2 antibody, 0.5 nM europium labeled anti-rabbit IgG and 10 nM streptavidin conjugated APC. After a one hour incubation with the stop/detection buffer, the reaction is read on an Envision 2100 Reader using a LANCET™ Eu/APC dual protocol. […] IC50 values are calculated using an Activity Base (IDBS) software program.
`CNc1cc(-c2cc3cnccc3c(NC)n2)ccn1` [Example 2, 1-Methylamino-3-(2-methylaminopyridin-4-yl)-[2,6]-naphthyridine] showed a pIC50 of 6.35. Compound `CN1CCN(c2nc(-c3ccnc(NC4CCCCC4)c3)cc3cnccc23)CC1` [Example 13, Cyclohexyl-{4-[1-(4-methylpiperazin-1-yl)-[2,6]naphthyridin-3-yl]pyridin-2-yl}amine] has a pIC50 of 9.00.

Same assay, conditions: full length wild-type enzyme, 20 μM ATP; read-out: Inhibitory Activity PKD3
In the case of `Cn1ccc(Nc2cc(-c3cc4cnccc4c(N4CCC(C(N)=O)CC4)n3)ccn2)n1` [Example 19, 1-{3-[2-(1-Methyl-1H-pyrazol-3-ylamino)pyridin-4-yl]-[2,6]naphthyridin-1-yl}piperidine-4-carboxylic acid amide], the pIC50 was 9.40. Compound `NC(=O)C1CCN(c2nc(-c3ccnc(NC4CCCCC4)c3)cc3cnccc23)CC1` [Example 10, 1-[3-(2-Cyclohexylaminopyridin-4-yl)-[2,6]naphthyridin-1-yl]piperidine-4-carboxylic acid amide] has a pIC50 of 7.08. Compound `CN(C)CCNc1nc(-c2ccnc(NC3CCCCC3)c2)cc2cnccc12` [Example 8, N-[3-(2-Cyclohexylaminopyridin-4-yl)-[2,6]naphthyridin-1-yl]-N′,N′-dimethylethane-1,2-diamine] has a pIC50 of 7.24. `OCCNc1nc(-c2ccnc(NC3CCCCC3)c2)cc2cnccc12` [Example 5, 2-[3-(2-Cyclohexylaminopyridin-4-yl)-[2,6]naphthyridin-1-ylamino]ethanol] gave a pIC50 of 6.47. `CC(=O)N1CCN(c2nc(-c3ccnc(NC4CCCCC4)c3)cc3cnccc23)CC1` [Example 11, 1-{4-[3-(2-Cyclohexylaminopyridin-4-yl)-[2,6]naphthyridin-1-yl]piperazin-1-yl}ethanone] showed a pIC50 of 7.64. Compound `COc1cccc(Nc2cc(-c3cc4cnccc4c(NCCO)n3)ccn2)c1` [Example 7] has a pIC50 of 7.21. In the case of `CN(C)CCNc1nc(-c2ccnc(Nc3ccccc3)c2)cc2cnccc12` [Example 9, N,N-Dimethyl-N′-[3-(2-phenylaminopyridin-4-yl)-[2,6]naphthyridin-1-yl]-ethane-1,2-diamine], the pIC50 was 7.41. With `c1cc2c(NC3CCNC3)nc(-c3ccnc(NC4CCCCC4)c3)cc2cn1` (stereo not drawn) [Example 14, [3-(2-Cyclohexylaminopyridin-4-yl)-[2,6]naphthyridin-1-yl]pyrrolidin-3-ylamine] the pIC50 was 9.00. For `O=C(NC1CC1)C1CCN(c2nc(-c3ccnc(NC4CCOCC4)c3)cc3cnccc23)CC1` [Example 17, 1-{3-[2-(Tetrahydropyran-4-ylamino)pyridin-4-yl]-[2,6]naphthyridin-1-yl}piperidine-4-carboxylic acid cyclopropylamide], the pIC50 was 8.52. `COCCNc1cc(-c2cc3cnccc3c(N3CCNCC3)n2)ccn1` [Example 21, (2-Methoxyethyl)-[4-(1-piperazin-1-yl-[2,6]naphthyridin-3-yl)-pyridin-2-yl]amine] showed a pIC50 of 8.00. Compound `Cn1ccc(Nc2cc(-c3cc4cnccc4c(N4CCC5(CCNC5=O)CC4)n3)ccn2)n1` [Example 20, 8-{3-[2-(1-Methyl-1H-pyrazol-3-ylamino)pyridin-4-yl]-[2,6]naphthyridin-1-yl}-2,8-diaza-spiro[4.5]decan-1-one] has a pIC50 of 8.05. Work on `c1cc2c(N3CCNCC3)nc(-c3ccnc(NC4CCCCC4)c3)cc2cn1` [Example 3, Cyclohexyl-[4-(1-piperazin-1-yl-[2,6]naphthyridin-3-yl)pyridin-2-yl]amine] yielded a pIC50 of 9.52. `CNc1cc(-c2cc3cnccc3c(NCCCO)n2)ccn1` [Example 1] was tested, and the pIC50 was 6.64. Work on `CCNC(=O)N1CCN(c2nc(-c3ccnc(Nc4ccn(C)n4)c3)cc3cnccc23)CC1` [Example 18, 4-{3-[2-(1-Methyl-1H-pyrazol-3-ylamino)pyridin-4-yl]-[2,6]naphthyridin-1-yl}piperazine-1-carboxylic acid ethylamide] yielded a pIC50 of 7.52. Work on `O=C(NCCO)C1CCN(c2nc(-c3ccnc(NC4CCOCC4)c3)cc3cnccc23)CC1` [Example 16, 1-{3-[2-(Tetrahydropyran-4-ylamino)pyridin-4-yl]-[2,6]naphthyridin-1-yl}piperidine-4-carboxylic acid (2-hydroxyethyl)amide] yielded a pIC50 of 8.70. `CN(C)CC1CCN(c2nc(-c3ccnc(NC4CCCCC4)c3)cc3cnccc23)CC1` [Example 12, Cyclohexyl-{4-[1-(4-dimethylaminomethylpiperidin-1-yl)-[2,6]naphthyridin-3-yl]pyridin-2-yl}amine] showed a pIC50 of 7.68. `CC(C)Nc1cc(-c2cc3cnccc3c(NCCO)n2)ccn1` [Example 6, 2-[3-(2-Isopropylaminopyridin-4-yl)-[2,6]naphthyridin-1-ylamino]ethanol] gave a pIC50 of 6.92. `c1ccc(Nc2cc(-c3cc4cnccc4c(N4CCNCC4)n3)ccn2)cc1` [Example 4, Phenyl-[4-(1-piperazin-1-yl-[2,6]naphthyridin-3-yl)pyridin-2-yl]amine] showed a pIC50 of 8.10. `c1cc2c(NC3CCCNC3)nc(-c3ccnc(NC4CCCCC4)c3)cc2cn1` (stereo not drawn) [Example 15, [3-(2-Cyclohexylaminopyridin-4-yl)-[2,6]naphthyridin-1-yl]piperidin-3-ylamine] was tested, and the pIC50 was 7.72.
